Laboratory results: PubChem BioAssay AID179 (DTP/NCI, 2004)
Several values for one entry are separate records, joined by “and”; a condition that tells them apart may be missing. Equal values may be shown once. Activity calls are given as the source filed them.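 The calls were made as follows: active = compounds giving half or more protection of infected cells from virus-caused growth loss, again on retest; inactive = the rest.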 *1 amine or outer side, *2 acyl side, *3 side chain or, on linkers, in order; H or OH if unused. Where a SMILES comes first, the peptide text is derived from it. [ ]: non-standard residue; d: D form. The star is where a group is joined. X3 = CC(=O)N(C)SCC(N[*:1])C(=O)[*:2]; Cbz = O=C(OCc1ccccc1)*; Bn = c1ccc(C*)cc1

System: CEM cells HIV-1 protection, formazan growth assay
Experiment: NCI AIDS Antiviral Assay
Details: for IC50: measured here: growth of uninfected CEM cells
Procedure, shortened: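 Human CEM cells, uninfected and HIV-1-infected, exposed to five drug concentrations; growth measured by soluble formazan assay and scored as percent protection from infection, with protecting compounds retested.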

SMILES	outcome	EC50	IC50
CCC(O)C1Cc2c(C)cc3c(c2O1)C(=O)c1ccccc1C3=O (centres undefined)	inactive		
CC/C=N\N1C(N)=C(C#N)C(C#N)(C#N)C1CC (centres undefined)		> 200 µM	64.6 µM
CC12CC(=O)NC(=O)N1CCS2 (centres undefined)		214 µM	562 µM
CC(=N\N=C\c1ccccn1)/C(C)=N/N=C(C)/C(C)=N/N=C(C)/C(C)=N/N=C/c1ccccn1	inactive		
CC(=O)/C(=C/N1C(=O)CC(=O)NC1=S)C(=O)Nc1ccccc1		> 200 µM	> 200 µM
O=S(=O)(SC1=NCCN1)c1ccccc1		105 µM	302 µM
CN(CC1(CO)CCC1)c1cc(Cl)nc(N)n1		> 200 µM	53.7 µM
O=C(O)/C=C\CCCCCCCCC(=O)O		> 794 µM	> 794 µM
N#CC1=C(N)N(c2ccccc2)C(c2ccccc2)C1(C#N)C#N (centres undefined)		> 200 µM	14.1 µM
O=C1c2ccccc2CC12CCC1(CC2)OCCO1		> 200 µM	> 200 µM
Cc1c2oc(=O)c(C#N)cc2c2ccccn12		> 200 µM	> 200 µM
Cc1cc(O)c2c(=O)c(=O)c2c1		> 1550 µM	275 µM
c1cc(CCSSCCc2ccncc2)ccn1		> 200 µM	3.8 µM
CN1CCC(CNC(=O)CCCCCCCCC(=O)NCC2(c3ccccc3)CCN(C)CC2)(c2ccccc2)CC1		97.7 µM and > 100 µM	> 100 µM
COC(=O)CC[N+]1=CCC(c2ccccc2)(c2ccccc2)O1		> 115 µM	69.2 µM
CN(C)CCNc1nc(-c2cccs2)cc(-c2cccs2)n1		> 759 µM	6.46 µM
CC(=O)C1C(=O)C(=O)N(c2ccc([N+](=O)[O-])cc2Cl)C1=O (centres undefined)		> 200 µM	95.5 µM
CCOc1ccc(NCC(=O)N2CC(=O)Nc3cc(C)c(C)cc32)cc1		> 20.4 µM	> 20.4 µM
COc1c(OC)c(OC)c2c(=O)c(OC)c(-c3ccc4c(c3)OCO4)oc2c1OC		> 200 µM	> 200 µM
COC(=O)[C@]12CSCN1C(=O)C(C(C)=O)=NN2C(=O)[C@](OC)(c1ccccc1)C(F)(F)F		> 200 µM	> 200 µM
COc1ccc2c(c1)CC[C@@H]1[C@@H]2CC[C@]2(C)C(=O)/C(=N/O)C[C@@H]12		> 200 µM	8.51 µM
NCCS/C=C/C(=O)OCc1ccc(Br)cc1		> 708 µM	97.7 µM

SMILES	outcome	EC50	IC50
CC1C(C)(C)C23CC12C1(OCCO1)C3Br (centres undefined)		> 200 µM	> 200 µM
CC(C)(Oc1ccc(/C=C/C(=O)c2ccccc2)cc1)C(=O)Nc1c(Cl)cccc1Cl		> 8.32 µM	> 8.32 µM
O=C=Nc1cc(S(=O)(=O)c2ccc(Cl)c(N=C=O)c2)ccc1Cl		> 200 µM	> 200 µM
CCN(CC)CN1C(=O)C(=O)c2ccccc21		> 200 µM	> 200 µM
CC(=O)N(C)SCC(NC(=O)C(Cc1ccccc1)NC(=O)OCc1ccccc1)C(=O)NC(Cc1ccccc1)C(=O)NC(Cc1c[nH]c2ccccc12)C(=O)NC(CCCCNC(=O)OCc1ccccc1)C(=O)NC(C(=O)NC(CSN(C)C(C)=O)C(=O)NC(C(N)=O)C(C)OCc1ccccc1)C(C)OCc1ccccc1 (centres undefined) (Cbz-F[X3]FWK(Cbz)T(Bn)[X3]T(Bn)-NH2; configuration not given here)		55 µM	85.1 µM
O=c1oc2ccccc2cc1Cl		> 145 µM	> 145 µM
COC(=O)C1(C)CC(c2ccccc2)=NC1c1ccccc1 (centres undefined)		> 123 µM	> 123 µM
NNC(=O)c1ccccc1NC(=O)/C(=C/c1ccccc1)NC(=O)c1ccccc1		> 200 µM	87.1 µM
CCCCCCCC(=O)c1c(O)c2ccccc2oc1=O		> 200 µM	26.9 µM
CCCN=C(N)NC#N		> 708 µM	> 708 µM
CC(c1ccccc1)N1O[C@]12CC[C@@]1(C)C(CCCC13OCCO3)C2 (some centres undefined)	inactive		
O=C(O)Cc1ccc2c(c1)sc1nc(-c3ccc(Br)cc3)cn12		> 200 µM	141 µM
O=S(=O)(O)c1ccc(N=Nc2ccc(S(=O)(=O)O)cc2)cc1	inactive		
CNc1ccccc1S(=O)(=O)c1cc(Cl)ccc1OC		151 µM	> 200 µM
N#CC(C#N)C(c1ccccc1)c1ccccc1	inactive		
C=CCCCCCCCCC(=O)NCC1CC1		> 200 µM	> 200 µM
CC(=O)O[C@H]1CC[C@@]2(C)C(=CC[C@@H]3C2CC[C@@]2(C)C3CC[C@@H]2c2nc(C)cs2)C1 (some centres undefined)		> 60.3 µM	> 60.3 µM
[N-]=[N+]=NC1CC(n2cc(COCC(F)(F)F)c(=O)[nH]c2=O)OC1CO (centres undefined)		5.75 µM	251 µM
O=c1[nH]c(=O)n(C2CC(O)C(CO)O2)cc1OCCCc1ccccc1 (centres undefined)		> 200 µM	> 200 µM
C=Cc1c(Cl)nc(C)c(C)c1-c1ccc(OC)c(OC)c1OCc1ccccc1		> 200 µM	25.1 µM
Nc1nnnn1-c1ccccc1		> 200 µM	> 200 µM
Cc1cc(C)nc(NC(=O)Nc2cc(Cl)ccc2C)c1		> 200 µM	> 200 µM

SMILES	outcome	EC50	IC50
COc1ccc(OC2OC(CO)C(O)C(O)C2O)cc1 (centres undefined)		> 200 µM	> 200 µM
CN(C)CC1CCCC1=O (centres undefined)	inactive	> 200 µM	28.2 µM
COc1ccc(OC)c(/C=C2\C=Cc3ccccc32)c1		> 38 µM	6.46 µM
O=C(Nc1ccccc1C(=O)O)/C(=C/c1ccccc1)NC(=O)c1ccccc1		> 200 µM	> 200 µM
COc1cc(C2=NN(C)C(c3ccc([N+](=O)[O-])o3)C2)cc(OC)c1OC (centres undefined)		> 83.2 µM	32.4 µM
Cn1cccc1/C=C/c1cc(Br)c(/C=C/c2cccn2C)cc1Br	inactive		
O=c1n(Cl)c(=O)n(Cl)c(=O)n1Cl	inactive		
Clc1cc2c(c3ncccc13)OCN(CCc1ccccc1)C2		> 200 µM	0.955 µM
O=C(O)[C@@H]1CSC(c2ccccc2Cl)N1 (some centres undefined)		> 200 µM	141 µM
CCOc1ccnc2c(OC)c(C)c3nc4ccccc4nc3c12		> 100 µM	> 100 µM
COc1cc(O)c(C(=O)C2Cc3ccccc32)c(OC)c1 (centres undefined)	inactive		
O=C1NCCCCCCCCNC(=O)c2cccc1c2		> 13.8 µM	> 13.8 µM
O=C(O)C(C(C(=O)O)P(=O)(O)O)P(=O)(O)O (centres undefined)		> 200 µM	> 200 µM
COC(=O)c1sc2nc(Nc3ccccc3)c(=Nc3ccccc3)sc2c1C		> 200 µM	> 200 µM
N#CC(C(=O)C(=O)C(C#N)c1ccc(Br)cc1)c1ccc(Br)cc1 (centres undefined)	inactive		
CSC1=Nc2cc3c(cc2C(=O)N2CC(OC(C)=O)CC12)OCO3 (centres undefined)		> 200 µM	> 200 µM
CN(CC(O)C(O)CN(C)C(=S)S)C(=S)S (centres undefined)		> 661 µM	170 µM
O=C(O)c1cc(Nc2nc(Cl)nc(Cl)n2)ccc1-c1c2ccc(=O)cc-2oc2cc(O)ccc12		38 µM	692 µM
CSc1nc(-c2ccccc2)[nH]c(=O)n1		> 200 µM	> 200 µM
O=C(O)C1COCN1C(=O)c1cc2ccccc2cc1SSc1cc2ccccc2cc1C(=O)N1COCC1C(=O)O (centres undefined)		> 200 µM	93.3 µM
CCOC(=O)/C(=C\c1cccc(F)c1)C(C)=O		> 398 µM	182 µM
Cc1ccc2nc(NC(=O)/C(Cc3nc4ccc(Cl)cc4[nH]c3=O)=N\NC(C)(C)C)sc2c1		> 74.1 µM	> 74.1 µM

SMILES	outcome	EC50	IC50
CC(NCCCNC(C)C(=O)O)C(=O)O (centres undefined)		> 661 µM	> 661 µM
COc1ccccc1C1OCC(C)(C)N1C (centres undefined)		> 200 µM	14.5 µM
O=c1oc(=O)c2cc3c(=O)oc(=O)c3cc12		> 200 µM	> 200 µM
COc1cc2nncc(Sc3cnnc4ccccc34)c2cc1OC		> 61.7 µM	7.59 µM
O=[N+]([O-])c1cccc2nc3ccccc3c(NCCCCCNc3c4ccccc4nc4cccc([N+](=O)[O-])c34)c12		0.0195 µM	0.0832 µM
C=CCN=C1N=C(C)C(C(=O)OCC)S1 (centres undefined)		> 30.2 µM	17.8 µM
CSC1=C(C#N)C(=O)N(c2ccc(C)cc2)C(=O)C1C#N (centres undefined)		> 200 µM	151 µM
COc1cc(C(c2ccccc2)N2C(=O)CC[C@H]2C(=O)O)cc(OC)c1OC (some centres undefined)		> 200 µM	> 200 µM
O=C(N/C(=C\c1ccc(Oc2ccc(Cl)c(Cl)c2)cc1)c1nc2ccccc2[nH]1)c1ccccc1	inactive		
COC1/C=C/OC2(C)Oc3c(C)c(O)c4c(O)c(c(C5SCCS5)c(O)c4c3C2=O)NC(=O)/C(C)=C\C=C\C(C)C(O)C(C)C(O)C(C)C(O)C1C (centres undefined)		> 200 µM	1 µM
Cc1ccc(S(=O)(=O)N[C@H](C(=O)O)c2ccccc2)cc1	inactive		
CN(C)CCNC(=O)c1cccc(N(C)C(=O)c2ccccc2)c1[N+](=O)[O-]		> 200 µM	> 200 µM
C/C([O-])=C\[P+](c1ccccc1)(c1ccccc1)c1ccccc1		> 200 µM	105 µM
N=c1nc(-c2ccccc2)nc2[nH]c3c4cccc5cccc(c3nc12)c54		> 200 µM	67.6 µM
N#Cc1nsnc1-c1nc(-c2nsnc2C#N)nc(-c2nsnc2C#N)n1		> 200 µM	141 µM
NS(=O)(=O)c1ccc(NC(=O)CC(=O)Nc2ccc(S(N)(=O)=O)cc2)cc1	inactive		
CC1(C)CC(=O)C2=C(C1)NC(SSC1=C(C#N)C(c3ccc(Br)cc3)C3=C(CC(C)(C)CC3=O)N1)=C(C#N)C2c1ccc(Br)cc1 (centres undefined)		36.3 µM	52.5 µM
OC1(c2ccc(-c3ccccc3)cc2)c2ccccc2C2=NCCN21 (centres undefined)		> 200 µM	> 100 µM
CC(C)(C)OC(=O)CC(NC(=O)OCc1ccccc1)NC(=O)OC(C)(C)C (centres undefined)		> 200 µM	> 200 µM
Cc1ccc(/C=N/Nc2nc3ccccc3s2)s1		> 200 µM	67.6 µM
CC1OC(OC2C(O[C@H]3CC[C@@]4(C)C(=CC[C@H]5[C@@H]6C[C@@H]7O[C@]8(CC[C@H](C)CN8)[C@@H](C)[C@@H]7[C@@]6(C)CC[C@@H]54)C3)OC(CO)C(O)C2OC2OC(CO)C(O)C(O)C2O)C(O)C(O)C1O (some centres undefined)	inactive		
CCC(C)C1NC(=O)C(N(C)C)Cc2cc(ccc2OC)/C=C/NC(=O)C(Cc2ccccc2)NC1=O (centres undefined)		> 35.5 µM	> 35.5 µM
